Active and inactive are the calls of the source. The rule behind the calls is not given here.
What was measured:
[1] = tested on: Staphylococcus haemolyticus; experiment: Bactericidal activity against Staphylococcus haemolyticus incubated overnight; assay type: functional
[2] = Dermal toxicity in BALB/c mouse assessed as irritation at 125 mg/kg, TOPp measured after 48 hrs; assay type: organism-based; details: in vivo, topical_or_ocular
Aeromonas hydrophila [3] = experiment: Bactericidal activity against Aeromonas hydrophila incubated overnight; assay type: functional
Vibrio vulnificus [4] = experiment: Antibacterial activity against Vibrio vulnificus at pH 2 to 10; assay type: functional, organism-based
Klebsiella aerogenes [5] = experiment: Synergistic antibacterial activity against Enterobacter aerogenes in presence of meropenem by checkerboard microtiter plate assay; assay type: functional
Acinetobacter baumannii [6] = experiment: Synergistic antibacterial activity against Acinetobacter baumannii in presence of doxycycline by checkerboard microtiter plate assay; assay type: functional
Vibrio vulnificus [7] = experiment: Antibacterial activity against Vibrio vulnificus in presence of 10 ug/ml proteinase K; assay type: functional, organism-based
Vibrio vulnificus [8] = experiment: Antibacterial activity against Vibrio vulnificus in presence of 0.1 ug/ml trypsin; assay type: functional, organism-based
Enterococcus faecalis = experiment: Antibacterial activity against Enterococcus faecalis incubated for 16 to 20 hrs; assay type: functional; details: time 16-20 hrs
Vibrio vulnificus [9] = experiment: Antibacterial activity against Vibrio vulnificus in presence of proteinase K; assay type: functional, organism-based
Vibrio alginolyticus [10] = experiment: Bactericidal activity against Vibrio alginolyticus incubated overnight; assay type: functional
Vibrio vulnificus [11] = experiment: Antibacterial activity against Vibrio vulnificus V3 incubated for 16 to 20 hrs; assay type: functional; details: time 16-20 hrs
Vibrio vulnificus [12] = experiment: Antibacterial activity against Vibrio vulnificus 204 assessed as induction of resistance development by measuring fold increase in MIC measured after 15 passages; assay type: functional
Pseudomonas aeruginosa [13] = experiment: Additive antibacterial activity against Pseudomonas aeruginosa assessed as fractional inhibitory concentration in presence of meropenem by checkerboard microtiter plate assay; assay type: functional
Acinetobacter baumannii [14] = experiment: Additive antibacterial activity against Acinetobacter baumannii assessed as fractional inhibitory concentration in presence of meropenem by checkerboard microtiter plate assay; assay type: functional
Vibrio alginolyticus [15] = experiment: Antibacterial activity against Vibrio alginolyticus incubated for 16 to 20 hrs; assay type: functional; details: time 16-20 hrs
Nakaseomyces glabratus [16] = experiment: Fungicidal activity against Candida glabrata incubated overnight; assay type: functional
Klebsiella pneumoniae [17] = experiment: Synergistic antibacterial activity against Klebsiella pneumoniae expressing NDM1 assessed as doxycycline MIC by checkerboard microtiter plate assay; assay type: functional
Candida tropicalis = experiment: Antifungal activity against Candida tropicalis incubated for 16 to 20 hrs; assay type: functional; details: time 16-20 hrs
[18] = Dermal toxicity in BALB/c mouse assessed as morphological changes at 125 mg/kg, TOPp measured after 48 hrs; assay type: organism-based; details: in vivo, topical_or_ocular
Salmonella typhimurium = experiment: Antibacterial activity against Salmonella typhimurium incubated for 16 to 20 hrs; assay type: functional, Salmonella enterica subsp. enterica serovar Typhimurium; details: Salmonella enterica; time 16-20 hrs
Aeromonas hydrophila [19] = experiment: Antibacterial activity against Aeromonas hydrophila incubated for 16 to 20 hrs; assay type: functional; details: time 16-20 hrs
Streptococcus iniae [20] = experiment: Additive antibacterial activity against Streptococcus iniae assessed as fractional inhibitory concentration in presence of meropenem by checkerboard microtiter plate assay; assay type: functional
Vibrio vulnificus [21] = experiment: Antibacterial activity against Vibrio vulnificus treated with preheated compounds; assay type: functional, organism-based
Vibrio vulnificus [22] = experiment: Antibiofilm activity against Vibrio vulnificus V2 assessed as inhibition of biofilm formation at 25 ug/ml incubated for 24 hrs by crystal violet staining based assay; assay type: functional, organism-based; details: dose 25.0 µg/ml
Klebsiella pneumoniae [23] = experiment: Synergistic antibacterial activity against Klebsiella pneumoniae expressing NDM1 assessed as fractional inhibitory concentration in presence of doxycycline by checkerboard microtiter plate assay; assay type: functional
Vibrio vulnificus [24] = experiment: Antibacterial activity against Vibrio vulnificus 204 in presence of human serum; assay type: functional, organism-based
Vibrio vulnificus [25] = experiment: Antibacterial activity against Vibrio vulnificus V1 incubated for 16 to 20 hrs; assay type: functional; details: time 16-20 hrs
Streptococcus iniae [26] = experiment: Bactericidal activity against Streptococcus iniae incubated overnight; assay type: functional
[27] = Hemolytic activity in human RBC at 100 ug/ml incubated for 1 hr; assay type: toxicity, cell-based, Erythrocyte; details: human red blood cells (erythrocytes), at 100 µg/mL, read-out: Activity
Escherichia coli [28] = experiment: Synergistic antibacterial activity against Escherichia coli assessed as meropenem MIC by checkerboard microtiter plate assay; assay type: functional
Acinetobacter baumannii [29] = experiment: Synergistic antibacterial activity against Acinetobacter baumannii assessed as doxycycline MIC by checkerboard microtiter plate assay; assay type: functional
Vibrio vulnificus [30] = experiment: Bactericidal activity against Vibrio vulnificus V3 incubated overnight; assay type: functional
[31] = Cytotoxicity against human HaCaT cells incubated for 24 hrs by LDH assay; assay type: toxicity, cell-based; details: read-out: LD50
Vibrio harveyi = experiment: Bactericidal activity against Vibrio harveyi incubated overnight; assay type: functional
Klebsiella aerogenes [32] = experiment: Bactericidal activity against Enterobacter aerogenes incubated overnight; assay type: functional
Streptococcus agalactiae [33] = experiment: Synergistic antibacterial activity against Streptococcus agalactiae assessed as doxycycline MIC by checkerboard microtiter plate assay; assay type: functional
Vibrio vulnificus [34] = experiment: Synergistic antibacterial activity against Vibrio vulnificus in presence of doxycycline by checkerboard microtiter plate assay; assay type: functional
Vibrio vulnificus [35] = experiment: Antibiofilm activity against Vibrio vulnificus 204 assessed as inhibition of biofilm formation at 25 ug/ml incubated for 24 hrs by crystal violet staining based assay; assay type: functional, organism-based; details: dose 25.0 µg/ml
Vibrio vulnificus [36] = experiment: Antibacterial activity against Vibrio vulnificus 204 incubated for 16 to 20 hrs; assay type: functional; details: time 16-20 hrs
Streptococcus agalactiae [37] = experiment: Synergistic antibacterial activity against Streptococcus agalactiae assessed as meropenem MIC by checkerboard microtiter plate assay; assay type: functional
Vibrio vulnificus [38] = experiment: Antibiofilm activity against Vibrio vulnificus 204 assessed as inhibition of biofilm formation at 50 to 100 ug/ml incubated for 24 hrs by crystal violet staining based assay; assay type: functional, organism-based; details: dose 50-100 µg/ml
Pseudomonas aeruginosa [39] = experiment: Additive antibacterial activity against Pseudomonas aeruginosa in presence of meropenem by checkerboard microtiter plate assay; assay type: functional
Staphylococcus aureus = experiment: Bactericidal activity against Staphylococcus aureus incubated for overnight; assay type: functional
Acinetobacter baumannii [40] = experiment: Bactericidal activity against Acinetobacter baumannii incubated for overnight; assay type: functional
Enterococcus faecium = experiment: Antibacterial activity against Enterococcus faecium incubated for 16 to 20 hrs; assay type: functional; details: time 16-20 hrs
Edwardsiella tarda = experiment: Antibacterial activity against Edwardsiella tarda incubated for 16 to 20 hrs; assay type: functional; details: time 16-20 hrs
Vibrio vulnificus [41] = experiment: Antibacterial activity against Vibrio vulnificus in presence of pancreatin; assay type: functional, organism-based
Klebsiella pneumoniae [42] = experiment: Antibacterial activity against NDM Klebsiella pneumoniae incubated for 16 to 20 hrs; assay type: functional; details: time 16-20 hrs
Nakaseomyces glabratus [43] = experiment: Antifungal activity against Candida glabrata incubated for 16 to 20 hrs; assay type: functional; details: time 16-20 hrs
Escherichia coli [44] = experiment: Synergistic antibacterial activity against Escherichia coli assessed as fractional inhibitory concentration in presence of meropenem by checkerboard microtiter plate assay; assay type: functional
Vibrio vulnificus [45] = experiment: Synergistic antibacterial activity against Vibrio vulnificus assessed as meropenem MIC by checkerboard microtiter plate assay; assay type: functional
Vibrio vulnificus [46] = experiment: Synergistic antibacterial activity against Vibrio vulnificus assessed as fractional inhibitory concentration in presence of meropenem by checkerboard microtiter plate assay; assay type: functional
Streptococcus iniae [47] = experiment: Additive antibacterial activity against Streptococcus iniae in presence of meropenem by checkerboard microtiter plate assay; assay type: functional
Salmonella enterica = experiment: Bactericidal activity against Salmonella enterica incubated overnight; assay type: functional
Escherichia coli [48] = experiment: Synergistic antibacterial activity against Escherichia coli in presence of meropenem by checkerboard microtiter plate assay; assay type: functional
Klebsiella oxytoca = experiment: Antibacterial activity against Klebsiella oxytoca incubated for 16 to 20 hrs; assay type: functional; details: time 16-20 hrs
Streptococcus iniae [49] = experiment: Additive antibacterial activity against Streptococcus iniae assessed as meropenem MIC by checkerboard microtiter plate assay; assay type: functional
Vibrio vulnificus [50] = experiment: Antibiofilm activity against Vibrio vulnificus V3 assessed as inhibition of biofilm formation at 25 ug/ml incubated for 24 hrs by crystal violet staining based assay; assay type: functional, organism-based; details: dose 25.0 µg/ml

With H-FKWKSVLKGVKGFVKGYF-OH as the substance, how does the MBC [1] read?
The MBC was < 1.56 µg/mL.

What about the Activity [2] of the same substance?
The Activity was “Non-Toxic”.

And the MBC (Aeromonas hydrophila [3])?
Its MBC is > 100 µg/mL.

And the Activity (Vibrio vulnificus [4])?
The Activity was “Active”.

What about the MIC (Klebsiella aerogenes [5]) of the same substance?
The MIC was 0.195 µg/mL.

And the MIC (Acinetobacter baumannii [6])?
Its MIC is 0.048 µg/mL.

What about the Activity (Vibrio vulnificus [7]) of the same substance?
The Activity was “inactive”.

What about the Activity (Vibrio vulnificus [8]) of the same substance?
The Activity was “Active”.

What about the MIC (Enterococcus faecalis) of the same substance?
Its MIC is 50 µg/mL.

And the Activity (Vibrio vulnificus [9])?
The Activity was “Active”.

What about the MBC (Vibrio alginolyticus [10]) of the same substance?
Its MBC is 6.25 µg/mL.

And the MIC (Vibrio vulnificus [11])?
The MIC was 12.5 µg/mL.

What about the “fold change (FC)” value (Vibrio vulnificus [12]) of the same substance?
Its value is <2.

And the FIC (Pseudomonas aeruginosa [13])?
The FIC was 0.75.

What about the FIC (Acinetobacter baumannii [14]) of the same substance?
Its FIC is 0.51.

What about the MIC (Vibrio alginolyticus [15]) of the same substance?
The MIC was 3.12 µg/mL.

And the MFC (Nakaseomyces glabratus [16])?
Its MFC is > 100 µg/mL.

And the MIC (Klebsiella pneumoniae [17])?
The MIC was 1.56 µg/mL.

What about the MIC (Candida tropicalis) of the same substance?
The MIC was 50 µg/mL.

And the Activity [18]?
The Activity was “Non-Toxic”.

What about the MIC (Salmonella typhimurium) of the same substance?
The MIC was 12.5 µg/mL.

And the MIC (Aeromonas hydrophila [19])?
The MIC was > 100 µg/mL.

And the FIC (Streptococcus iniae [20])?
The FIC was 0.51.

What about the Activity (Vibrio vulnificus [21]) of the same substance?
Its Activity is “Active”.

What about the Activity (Vibrio vulnificus [22]) of the same substance?
Its Activity is “inactive”.

And the FIC (Klebsiella pneumoniae [23])?
The FIC was 0.18.

And the Activity (Vibrio vulnificus [24])?
The Activity was “Active”.

And the MIC (Vibrio vulnificus [25])?
Its MIC is 12.5 µg/mL.

And the MBC (Streptococcus iniae [26])?
The MBC was < 1.56 µg/mL.

And the hemolysis at 1 h, 100 ug/ml [27]?
Its hemolysis at 1 h, 100 ug/ml is 26.5%.

What about the MIC (Escherichia coli [28]) of the same substance?
Its MIC is 0.001 µg/mL.

And the MIC (Acinetobacter baumannii [29])?
Its MIC is 0.003 µg/mL.

And the MBC (Vibrio vulnificus [30])?
The MBC was 12.5 µg/mL.

What about the CC50 at 24 h [31] of the same substance?
The CC50 at 24 h was > 100 µg/mL.

What about the MBC (Vibrio harveyi) of the same substance?
The MBC was > 100 µg/mL.

And the MBC (Klebsiella aerogenes [32])?
The MBC was 12.5 µg/mL.

And the MIC (Streptococcus agalactiae [33])?
The MIC was 0.006 µg/mL.

And the MIC (Vibrio vulnificus [34])?
Its MIC is 0.097 µg/mL.

And the Activity (Vibrio vulnificus [35])?
Its Activity is “inactive”.

And the MIC (Vibrio vulnificus [36])?
Its MIC is 6.25 µg/mL.

And the MIC (Streptococcus agalactiae [37])?
The MIC was 0.002 µg/mL.

And the Activity (Vibrio vulnificus [38])?
Its Activity is “Active”.

And the MIC (Pseudomonas aeruginosa [39])?
The MIC was 6.25 µg/mL.

And the MBC (Staphylococcus aureus)?
Its MBC is 50 µg/mL.

What about the MBC (Acinetobacter baumannii [40]) of the same substance?
The MBC was 3.12 µg/mL.

And the MIC (Enterococcus faecium)?
Its MIC is 25 µg/mL.

And the MIC (Edwardsiella tarda)?
The MIC was 50 µg/mL.

What about the Activity (Vibrio vulnificus [41]) of the same substance?
Its Activity is “Active”.

And the MIC (Klebsiella pneumoniae [42])?
The MIC was 25 µg/mL.

What about the MIC (Nakaseomyces glabratus [43]) of the same substance?
Its MIC is > 100 µg/mL.

What about the FIC (Escherichia coli [44]) of the same substance?
The FIC was 0.07.

And the MIC (Vibrio vulnificus [45])?
The MIC was 0.003 µg/mL.

And the FIC (Vibrio vulnificus [46])?
Its FIC is 0.14.

And the MIC (Streptococcus iniae [47])?
The MIC was 0.024 µg/mL.

And the MBC (Salmonella enterica)?
Its MBC is 12.5 µg/mL.

What about the MIC (Escherichia coli [48]) of the same substance?
Its MIC is 0.097 µg/mL.

What about the MIC (Klebsiella oxytoca) of the same substance?
Its MIC is 25 µg/mL.

And the MIC (Streptococcus iniae [49])?
The MIC was 0.195 µg/mL.

What about the Activity (Vibrio vulnificus [50]) of the same substance?
The Activity was “inactive”.
